The target in one test is T1, GAL2 (h) (Homo sapiens, UniProt O43603).
T1 construct: purchased Cerep
In words: Cerep selectivity panel. The test is classed as binding. A digest of the protocol: (§1)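 Off-target profiling within a commercial panel of 50 receptors, ion channels and transporters; each compound was tested at 1 µM and 10 µM.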

Another test has as its target T2, RORγ/γt LBD (Homo sapiens, UniProt P51449).
T2 construct: made in house; host or cells: E. coli BL21DE3 GOLD, pET24a
Description: ThermoFluor binding assay, RORγ/γt LBD. To be noted: recombinant human LBD; read-out: ThermoFlour Binding Assay (Kd, nM) RORγ/γt.

For the next test, the system named is Aa1. Description: Cerep selectivity panel. The test is classed as binding.
In another test the target is T3, 5HT1A (h) (Homo sapiens, UniProt P08908).
T3 construct: purchased Cerep
T3 sequence (P08908 whole entry): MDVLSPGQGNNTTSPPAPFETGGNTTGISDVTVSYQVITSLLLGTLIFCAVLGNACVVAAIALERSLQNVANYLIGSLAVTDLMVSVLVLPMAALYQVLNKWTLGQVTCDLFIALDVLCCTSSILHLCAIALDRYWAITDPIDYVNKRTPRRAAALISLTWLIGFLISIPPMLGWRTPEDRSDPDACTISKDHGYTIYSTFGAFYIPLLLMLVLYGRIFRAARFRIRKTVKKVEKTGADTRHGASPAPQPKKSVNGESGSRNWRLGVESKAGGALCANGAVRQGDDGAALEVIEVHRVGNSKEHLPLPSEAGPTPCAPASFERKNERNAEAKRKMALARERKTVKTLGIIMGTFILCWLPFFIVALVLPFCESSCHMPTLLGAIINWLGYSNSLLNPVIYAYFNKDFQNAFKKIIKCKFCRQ
In words: Cerep selectivity panel. It is filed as binding. A digest of the protocol:
as §1

The target in the next test is T4, 5HT1B (Rattus norvegicus, UniProt P28564).
T4 construct: purchased Cerep
T4 sequence (P28564 whole entry): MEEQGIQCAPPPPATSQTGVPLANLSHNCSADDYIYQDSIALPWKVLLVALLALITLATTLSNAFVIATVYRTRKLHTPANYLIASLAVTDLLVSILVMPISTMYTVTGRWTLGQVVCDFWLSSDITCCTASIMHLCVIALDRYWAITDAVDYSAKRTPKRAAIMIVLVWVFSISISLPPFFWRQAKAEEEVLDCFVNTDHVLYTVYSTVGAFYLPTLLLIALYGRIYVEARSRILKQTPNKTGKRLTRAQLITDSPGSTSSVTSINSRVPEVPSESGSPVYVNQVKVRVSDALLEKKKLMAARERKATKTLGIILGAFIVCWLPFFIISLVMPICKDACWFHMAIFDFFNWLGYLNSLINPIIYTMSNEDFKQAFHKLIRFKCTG
In words: Cerep selectivity panel. The test is classed as binding. An outline of the steps:
as §1

A further test concerns the target T5, VIP 1 (h) (Homo sapiens, UniProt P32241).
T5 construct: purchased Cerep
In words: Cerep selectivity panel. The test is classed as binding. An outline of the steps: as §1

For a further test, the system named is RORγt transcripts. Description: RT-PCR of RORγt transcripts in human CD4 T cells during Th17 differentiation. To be noted: 0.1 and 0.5 μM, throughout the time course (2 hours to 6 days). It is filed as cell-based.
The next test has as its system IL-17A transcripts. Description: RT-PCR of IL-17A transcripts in human CD4 T cells during Th17 differentiation. The test is classed as cell-based. To be noted: 0.5 μM compound. As to the method: Human CD4 T cells from 2 healthy donors were used in studies. […]
For compound treatment, CD4 T cells were pre-treated with compounds or DMSO vehicle control at 37°C for 1 hour before T cell activation.
For siRNA treatment, three RORγt siRNAs, two RORα siRNAs, two control siRNAs were tested at 1 μM, and mock transfected samples were included as controls (S1 Table). siRNA treatment was performed by Amaxa electroporation of human CD4 T cells with siRNAs. Human CD4 T cells were taken up in 100 μL Nucleofector solution (P3 primary cell 4D Nucleofector Kit, reference V4XP-3024, Amaxa Biosciences) at 5.0 × 10^6 cells/100 μL. Cell suspensions were transfected with siRNA by electroporation using the FI-115 program in the Amaxa 4D-Nucleofector. T cells after electroporation were rinsed with 500 μL culture medium, transferred to 24-well culture plates and kept at 37°C cell incubator before use in T cell assays. It was noticed that Amaxa electroporation caused an increased expression of some genes in human T cells and this elevated gene expression lasted up to 8 hours after electroporation. To avoid gene expression study interfered by electroporation, human CD4 T cells were rested in culture medium at 37°C for 8 hours after siRNA electroporation before the use of these cells to initiate Th17 differentiation for transcriptome profile.
T cells after compound or siRNA treatments were stimulated with anti-CD3/anti-CD28 coated beads (Miltenyi Biotech) at 2:1 bead to cell ratio in culture medium containing 10 ng/ml IL1β (R&D), 10 ng/ml IL23 (R&D), 30 ng/ml TGFβ1 (R&D), 10 μg/ml of anti-IL4 and anti-IFNγ (eBioscience). T cell cultures were collected at different time points for RNA extraction and gene expression studies.
Expression of RORα, RORγt and IL-17A genes in siRNA or compound treated human Th17 cells was measured by quantitative RT-PCR using the TaqMan RNA-to-Ct 1 step kit (Applied Biosystems) following the manufacturer’s instructions. […]
PCR results were analyzed with the ddCT algorithm to generate data on relative quantitation and changes in gene expression.

A further test addresses T6, CCKA (h) (Homo sapiens, UniProt P32238).
T6 construct: purchased Cerep
Description: Cerep selectivity panel. The test is classed as binding. An outline of the steps: as §1

Another test deals with T7, H2 (h) (Homo sapiens, UniProt P25021).
T7 construct: purchased Cerep
T7 sequence (P25021 whole entry): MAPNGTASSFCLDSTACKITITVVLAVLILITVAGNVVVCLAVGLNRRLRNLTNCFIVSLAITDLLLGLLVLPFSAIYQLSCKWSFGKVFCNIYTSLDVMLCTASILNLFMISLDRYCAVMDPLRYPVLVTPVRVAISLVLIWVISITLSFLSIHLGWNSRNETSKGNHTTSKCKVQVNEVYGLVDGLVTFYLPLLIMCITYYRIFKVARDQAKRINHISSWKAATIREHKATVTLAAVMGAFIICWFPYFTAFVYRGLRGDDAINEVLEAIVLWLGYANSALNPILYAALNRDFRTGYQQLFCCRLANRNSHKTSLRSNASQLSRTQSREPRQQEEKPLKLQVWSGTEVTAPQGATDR
In words: Cerep selectivity panel. The test is classed as binding. A digest of the protocol: as §1

T5 sequence (P32241 31-457): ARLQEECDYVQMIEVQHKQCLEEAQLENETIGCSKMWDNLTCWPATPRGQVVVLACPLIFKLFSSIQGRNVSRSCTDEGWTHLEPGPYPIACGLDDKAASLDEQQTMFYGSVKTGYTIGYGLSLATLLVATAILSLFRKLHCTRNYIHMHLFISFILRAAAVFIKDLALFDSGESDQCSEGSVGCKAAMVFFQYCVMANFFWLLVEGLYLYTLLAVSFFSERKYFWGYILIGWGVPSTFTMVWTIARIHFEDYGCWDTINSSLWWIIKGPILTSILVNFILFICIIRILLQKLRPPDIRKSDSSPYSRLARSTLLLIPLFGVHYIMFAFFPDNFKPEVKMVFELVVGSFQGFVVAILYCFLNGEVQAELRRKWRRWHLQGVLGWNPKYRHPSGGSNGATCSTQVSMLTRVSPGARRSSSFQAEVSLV
T2 sequence (P51449 258-518): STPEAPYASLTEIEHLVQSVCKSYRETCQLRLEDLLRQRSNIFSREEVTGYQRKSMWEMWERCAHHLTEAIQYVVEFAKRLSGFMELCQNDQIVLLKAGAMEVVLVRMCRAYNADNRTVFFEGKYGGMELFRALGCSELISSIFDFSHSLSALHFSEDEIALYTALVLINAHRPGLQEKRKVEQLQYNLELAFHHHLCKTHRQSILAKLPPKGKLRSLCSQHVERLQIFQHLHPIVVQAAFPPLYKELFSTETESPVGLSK
T6 sequence (P32238 whole entry): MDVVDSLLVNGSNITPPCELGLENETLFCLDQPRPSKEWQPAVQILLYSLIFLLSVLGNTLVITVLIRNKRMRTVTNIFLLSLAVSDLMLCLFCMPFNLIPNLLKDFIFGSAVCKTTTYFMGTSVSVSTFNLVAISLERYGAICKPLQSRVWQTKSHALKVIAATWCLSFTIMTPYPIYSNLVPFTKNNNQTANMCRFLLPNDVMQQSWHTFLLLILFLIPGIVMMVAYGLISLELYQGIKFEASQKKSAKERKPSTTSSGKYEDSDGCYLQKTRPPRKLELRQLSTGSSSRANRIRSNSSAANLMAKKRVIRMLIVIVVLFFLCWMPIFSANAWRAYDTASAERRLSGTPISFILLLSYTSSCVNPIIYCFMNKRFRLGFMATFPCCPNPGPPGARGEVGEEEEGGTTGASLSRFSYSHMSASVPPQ
T1 sequence (O43603 whole entry): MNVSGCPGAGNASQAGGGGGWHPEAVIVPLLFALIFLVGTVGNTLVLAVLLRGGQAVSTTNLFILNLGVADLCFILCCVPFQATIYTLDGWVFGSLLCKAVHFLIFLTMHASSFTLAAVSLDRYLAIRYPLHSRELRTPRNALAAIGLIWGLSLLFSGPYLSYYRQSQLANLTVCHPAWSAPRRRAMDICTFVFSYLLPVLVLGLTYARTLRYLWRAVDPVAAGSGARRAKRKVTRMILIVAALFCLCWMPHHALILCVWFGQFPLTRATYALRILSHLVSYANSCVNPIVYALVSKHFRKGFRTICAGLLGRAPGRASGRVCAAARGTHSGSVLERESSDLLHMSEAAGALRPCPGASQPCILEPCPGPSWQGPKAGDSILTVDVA
Description for RORγ/γt LBD: Recombinant human RORγ, RORα and RORβ LBD proteins were prepared for ThermoFlour binding assay. […] All recombinant proteins contained an additional amino acid sequence of [sequence] at the N-terminal of LBD. After transformation of the bacteria strain BL21DE3 GOLD (Agilent) with the plasmids, 10 to 20 L cultures were grown to 1 OD and recombinant protein expression was induced overnight at 16°C with 0.2mM isopropyl-beta-D-thiogalactopyranoside (IPTG) (Corning). […] His-tagged proteins were collected with Ni-NTA resin (Qiagen) and purified with a HiTrap Q HP column (GE Life Sciences) eluted with a 40 CV gradient of 50-500mM NaCl.
The ThermoFluor® assay was established to measure the change in protein stability upon binding with compounds. 1-Anilinonaphthalene-8-Sulfonic Acid (1,8-ANS) (Invitrogen) was used as a fluorescent dye to label the test proteins. […] Assay plates were robotically loaded onto a thermostatically controlled PCR-type thermal block and then heated at a ramp-rate of 1°C/min. Fluorescence emission was initiated by continuous illumination with UV light (LC6, Hamamatsu) via fiber optic with a band-pass filter (380–400 nm) and detected with a CCD camera (Sensys, Roper Scientific) filtered to detect signal of 500 ± 25 nm. […]
Description for RORγt transcripts: Human CD4 T cells from 2 healthy donors were used in studies. 5.0 × 10^6 human CD4 T cells were used per sample and cell samples were collected at 0, 24 and 48 hours of Th17 differentiation for gene expression studies with RNA-Seq and RT-PCR.
Expression of RORα, RORγt and IL-17A genes in siRNA or compound treated human Th17 cells was measured by quantitative RT-PCR using the TaqMan RNA-to-Ct 1 step kit (Applied Biosystems) following the manufacturer’s instructions. […] Real time PCR was performed using 600ng total RNA as template in the ABI PRISM 7500 Sequence Detection System (Applied Biosystems), with reaction starting at 48°C for 15 minutes, then 10 minutes at 95°C, followed by 40 cycles of 15 seconds at 95°C and 1 minute at 60°C.
PCR results were analyzed with the ddCT algorithm [34] to generate data on relative quantitation and changes in gene expression.

In general, inhibition refers to the percentage by which the read-out fell short of the control. As for `COc1nc2ccc([C@](O)(c3ccc(Cl)cc3)c3cncn3C)cc2c(Cl)c1Cc1ccc(-n2cccn2)cc1` [B], the inhibition at 10 µM against GAL2 (h) worked out at 1%.

In the case of `COc1nc2ccc([C@@](O)(c3ccccc3)C3CCN(C(C)=O)CC3)cc2c(Cl)c1Cc1ccc(-n2cccn2)cc1` [C], the Kd at RORγ/γt LBD stood at 4.4 nM.

By % Inhibition is commonly meant the change of the read-out against control, counted positive when it falls. Higher therefore signals a strong effect. Turning to `COc1nc2ccc([C@@](O)(c3ccc(C)nc3C)c3cnnn3C)cc2c(Cl)c1Cc1ccc(C(F)(F)F)cc1` [compound A], the “% Inhibition at 1µM” value with Aa1 (1 µM) worked out at 8%. The “% Inhibition at 10µM” value with Aa1 (10 µM) is listed as 5%. Also, the inhibition at 1 µM worked out at 14% against 5HT1A (h) (1 µM) and 3% at VIP 1 (h). The inhibition at 10 µM amounted to 19% against 5HT1A (h) (10 µM) and 1% against 5HT1B.

For `CN(C)c1nc2ccc(C(O)(c3ccncc3)c3cncn3C)cc2c(Cl)c1-c1ccccc1` (centres unmarked) [compound D], the “effect on RORγt expression in T cells” value in the test on RORγt transcripts was “did not affect”. The “reduction of IL-17A transcripts” value with IL-17A transcripts (24 hours) stood at 79%; with IL-17A transcripts (72 hours) it was 73%. Moreover, the “decrease of IL-17A transcripts” value in the test with IL-17A transcripts (day 6) was 67%. This compound also yielded an inhibition at 1 µM at CCKA (h) of 11%. On H2 (h), this compound displayed an inhibition at 10 µM of 5%.

The values above are taken from PMC5538713, “RORγt and RORα signature genes in human Th17 cells” (PLoS ONE, 2017).
